This note sets out measurements from ChEMBL document CHEMBL4138084, “Structure-activity relationship study of the tumour-targeting peptide A20FMDV2 via modification of Lys16, Leu13, and N- and/or C-terminal functionality” (Eur J Med Chem, 2017).

Active and inactive are the calls of the source. The calls are words filed in the database; no cut-off is given here.

A short description of data set [1]: Drug uptake in human A375PPuro cells at 1000 nM after 15 mins by flow cytometric analysis. In kind it is ADME, cell-based. The settings on record: 0.25 h, 1 µM. In general terms: Flow cytometry measures light scatter and fluorescence of single cells or particles in a stream.
The target in data set [2] is Integrin alpha-V/beta-8 (Homo sapiens) (UniProt P06756+P26012). The experiment in a line: Binding affinity alphav/beta8 integrin in human A375PPuro cells at 1000 nM after 15 mins by flow cytometric analysis. Format: cell-based.
Data set [3] relates to Integrin alpha-V/beta-1 (Homo sapiens). Nature of the data set: Binding affinity alphav/beta1 integrin in human A375PPuro cells at 1000 nM after 15 mins by flow cytometric analysis.
In data set [4] the target is Integrin alpha-V/beta-5 (Homo sapiens) (UniProt P06756+P18084). The experiment in a line: Binding affinity alphav/beta5 integrin in human A375PPuro cells at 1000 nM after 15 mins by flow cytometric analysis. In kind it is cell-based.
For data set [5], the target named is T1, Integrin alpha-V/beta-6 (Homo sapiens, UniProt P06756+P18564). Nature of the data set: Binding affinity to alphav/beta6 integrin in human A375Pbeta6 cells at 100 nM after 15 mins by flow cytometric analysis relative to biotinylated A20FMDV2. In kind it is cell-based.
Data set [6] concerns the target T1, Integrin alpha-V/beta-6. Nature of the data set: Binding affinity to alphav/beta6 integrin in human A375Pbeta6 cells assessed as drug internalization at 100 nM after 15 mins by flow cytometric analysis relative to biotinylated A20FMDV2. In kind it is ADME, cell-based. As to conditions: 0.25 h, 0.1 µM.
Target sequence in this assay (P06756 31-889 limits assumed): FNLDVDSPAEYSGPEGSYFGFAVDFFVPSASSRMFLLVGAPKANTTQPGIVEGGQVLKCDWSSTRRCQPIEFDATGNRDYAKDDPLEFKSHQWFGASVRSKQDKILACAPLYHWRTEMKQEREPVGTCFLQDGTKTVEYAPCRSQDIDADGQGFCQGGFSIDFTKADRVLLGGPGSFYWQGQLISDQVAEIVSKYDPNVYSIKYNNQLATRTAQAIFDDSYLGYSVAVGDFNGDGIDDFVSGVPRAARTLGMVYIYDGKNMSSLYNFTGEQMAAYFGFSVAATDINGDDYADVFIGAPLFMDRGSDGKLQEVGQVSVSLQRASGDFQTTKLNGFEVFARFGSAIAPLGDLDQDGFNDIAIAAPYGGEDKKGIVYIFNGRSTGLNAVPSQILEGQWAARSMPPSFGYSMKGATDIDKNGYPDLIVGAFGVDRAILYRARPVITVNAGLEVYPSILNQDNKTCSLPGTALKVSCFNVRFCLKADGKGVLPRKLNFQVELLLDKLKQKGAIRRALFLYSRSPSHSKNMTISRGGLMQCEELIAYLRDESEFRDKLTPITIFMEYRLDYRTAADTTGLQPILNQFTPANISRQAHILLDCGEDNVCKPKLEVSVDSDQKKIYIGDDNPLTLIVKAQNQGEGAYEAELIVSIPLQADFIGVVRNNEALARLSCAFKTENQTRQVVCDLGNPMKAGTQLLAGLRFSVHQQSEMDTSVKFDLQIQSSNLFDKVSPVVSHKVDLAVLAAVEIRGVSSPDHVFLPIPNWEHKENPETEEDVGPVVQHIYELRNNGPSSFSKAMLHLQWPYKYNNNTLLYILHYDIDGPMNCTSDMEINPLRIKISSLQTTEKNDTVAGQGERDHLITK
Target sequence in this assay (P06756 891-1048 limits assumed): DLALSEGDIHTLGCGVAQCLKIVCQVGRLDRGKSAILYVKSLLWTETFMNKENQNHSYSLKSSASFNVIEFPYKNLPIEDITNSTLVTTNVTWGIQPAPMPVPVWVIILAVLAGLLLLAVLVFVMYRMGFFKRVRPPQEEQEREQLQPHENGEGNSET
Target sequence in this assay (P18564 22-788 limits assumed): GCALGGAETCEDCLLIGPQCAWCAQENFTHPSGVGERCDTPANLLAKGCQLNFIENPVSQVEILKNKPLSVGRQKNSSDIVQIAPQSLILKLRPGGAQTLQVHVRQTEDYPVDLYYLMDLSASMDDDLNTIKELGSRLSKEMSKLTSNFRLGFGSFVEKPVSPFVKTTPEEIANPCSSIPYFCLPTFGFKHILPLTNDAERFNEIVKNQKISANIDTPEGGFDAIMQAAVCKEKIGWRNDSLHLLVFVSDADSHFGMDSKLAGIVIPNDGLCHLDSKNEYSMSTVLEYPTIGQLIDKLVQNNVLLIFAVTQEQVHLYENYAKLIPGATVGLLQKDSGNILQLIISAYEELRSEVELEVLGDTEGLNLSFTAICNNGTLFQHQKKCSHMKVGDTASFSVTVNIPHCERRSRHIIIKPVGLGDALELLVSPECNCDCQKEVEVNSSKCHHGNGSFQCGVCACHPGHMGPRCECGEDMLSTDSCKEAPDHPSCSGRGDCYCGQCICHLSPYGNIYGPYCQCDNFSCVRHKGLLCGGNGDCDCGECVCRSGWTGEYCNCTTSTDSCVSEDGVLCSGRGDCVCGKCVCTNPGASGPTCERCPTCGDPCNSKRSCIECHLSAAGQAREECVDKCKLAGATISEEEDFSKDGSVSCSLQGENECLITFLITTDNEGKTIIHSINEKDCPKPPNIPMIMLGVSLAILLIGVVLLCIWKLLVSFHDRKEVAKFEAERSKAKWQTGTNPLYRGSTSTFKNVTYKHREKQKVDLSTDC

Regarding `CC(C)C[C@H](NC(=O)[C@H](CC(=O)O)NC(=O)CNC(=O)[C@H](CCCNC(=N)N)NC(=O)[C@H](CC(C)C)NC(=O)[C@H](CC(N)=O)NC(=O)[C@@H]1CCCN1C(=O)[C@@H](NC(=O)[C@H](CCCCNC(=O)CCCC[C@@H]1SC[C@@H]2NC(=O)N[C@@H]21)NC(=O)[C@H](CC(N)=O)NC(=O)CN1CCN(CC(=O)O)CCN(CC(=O)O)CCN(CC(=O)O)CC1)C(C)C)C(=O)N[C@@H](CCC(N)=O)C(=O)N[C@H](C(=O)N[C@@H](CC(C)C)C(=O)N[C@@H](C)C(=O)N[C@@H](CCC(N)=O)C(=O)N[C@@H](CCCCN)C(=O)N[C@H](C(=O)N[C@@H](C)C(=O)N[C@@H](CCCNC(=N)N)C(=O)N[C@H](C(=O)O)[C@@H](C)O)C(C)C)C(C)C`, the Drug uptake entry in data set [1] was “Not Active”. Moreover, the result in data set [2], in data set [3] and in data set [4] was inactive.

As for `CC(C)CC[C@H](NC(=O)[C@@H](NC(=O)[C@H](CCC(N)=O)NC(=O)[C@H](CC(C)C)NC(=O)[C@H](CC(=O)O)NC(=O)CNC(=O)[C@H](CCCNC(=N)N)NC(=O)[C@H](CC(C)C)NC(=O)[C@H](CC(N)=O)NC(=O)[C@@H]1CCCN1C(=O)[C@@H](NC(=O)[C@H](CCCCNC(=O)CCCC[C@@H]1SC[C@@H]2NC(=O)N[C@@H]21)NC(=O)[C@@H](N)CC(N)=O)C(C)C)C(C)C)C(=O)N[C@@H](C)C(=O)N[C@@H](CCC(N)=O)C(=O)N[C@@H](CCCCN)C(=O)N[C@H](C(=O)N[C@@H](C)C(=O)N[C@@H](CCCNC(=N)N)C(=O)N[C@H](C(=O)O)[C@@H](C)O)C(C)C`, the Drug uptake entry in data set [1] was “Not Active”. Moreover, the fold change (FC) on Integrin alpha-V/beta-6 [5] stood at 0.45; at Integrin alpha-V/beta-6 [6], 0.66.

Consider `CC(C)C[C@H](NC(=O)[C@H](CC(=O)O)NC(=O)CNC(=O)[C@H](CCCNC(=N)N)NC(=O)[C@H](CC(C)C)NC(=O)[C@H](CC(N)=O)NC(=O)[C@@H]1CCCN1C(=O)[C@@H](NC(=O)[C@H](CCCCNC(=O)CCCC[C@@H]1SC[C@@H]2NC(=O)N[C@@H]21)NC(=O)[C@@H](N)CC(N)=O)C(C)C)C(=O)N[C@@H](CCC(N)=O)C(=O)N[C@H](C(=O)N[C@@H](CC(C)C)C(=O)N[C@@H](C)C(=O)N[C@@H](CCC(N)=O)C(=O)N[C@@H](CCCCN)C(=O)N[C@H](C(=O)N[C@@H](C)C(=O)N[C@@H](CCCNC(=N)N)C(=O)N[C@@H](C(=O)O)[C@H](C)O)C(C)C)C(C)C`, for which, in data set [1], the Drug uptake result was “Not Active”. Also, the fold change (FC) is 0.53 at Integrin alpha-V/beta-6 [5] and 0.99 on Integrin alpha-V/beta-6 [6].

Take `CC(C)C[C@H](NC(=O)[C@H](CC(=O)O)NC(=O)CNC(=O)[C@H](CCCNC(=N)N)NC(=O)[C@H](CC(C)C)NC(=O)[C@H](CC(N)=O)NC(=O)[C@@H]1CCCN1C(=O)[C@@H](NC(=O)[C@H](CCCCNC(=O)CCCC[C@@H]1SC[C@@H]2NC(=O)N[C@@H]21)NC(=O)[C@@H](N)CC(N)=O)C(C)C)C(=O)N[C@@H](CCC(N)=O)C(=O)N[C@H](C(=O)N[C@@H](CC(C)C)C(=O)N[C@@H](C)C(=O)N[C@@H](CCC(N)=O)C(=O)N[C@@H](CN)C(=O)N[C@H](C(=O)N[C@@H](C)C(=O)N[C@@H](CCCNC(=N)N)C(=O)N[C@H](C(=O)O)[C@@H](C)O)C(C)C)C(C)C`: the Drug uptake result in data set [1] was “Not Active”. Further, the fold change (FC) on Integrin alpha-V/beta-6 [5] amounted to 0.79; on Integrin alpha-V/beta-6 [6], 0.96.

Consider `CCCC[C@H](NC(=O)[C@@H](NC(=O)[C@H](CCC(N)=O)NC(=O)[C@H](CC(C)C)NC(=O)[C@H](CC(=O)O)NC(=O)CNC(=O)[C@H](CCCNC(=N)N)NC(=O)[C@H](CC(C)C)NC(=O)[C@H](CC(N)=O)NC(=O)[C@@H]1CCCN1C(=O)[C@@H](NC(=O)[C@H](CCCCNC(=O)CCCC[C@@H]1SC[C@@H]2NC(=O)N[C@@H]21)NC(=O)[C@@H](N)CC(N)=O)C(C)C)C(C)C)C(=O)N[C@@H](C)C(=O)N[C@@H](CCC(N)=O)C(=O)N[C@@H](CCCCN)C(=O)N[C@H](C(=O)N[C@@H](C)C(=O)N[C@@H](CCCNC(=N)N)C(=O)N[C@H](C(=O)O)[C@@H](C)O)C(C)C`, for which the Drug uptake result in data set [1] is “Not Active”. For the same compound, the results for the fold change (FC) at Integrin alpha-V/beta-6 [5] and at Integrin alpha-V/beta-6 [6] were 1.16 and 1.15, respectively.

Regarding `CC(=O)N(C(=O)CN(CCN(CCN(CC(=O)O)CC(=O)O)CC(=O)O)CC(=O)O)[C@@H](CC(N)=O)C(=O)N[C@@H](CCCCNC(=O)CCCC[C@@H]1SC[C@@H]2NC(=O)N[C@@H]21)C(=O)N[C@H](C(=O)N1CCC[C@H]1C(=O)N[C@@H](CC(N)=O)C(=O)N[C@@H](CC(C)C)C(=O)N[C@@H](CCCNC(=N)N)C(=O)NCC(=O)N[C@@H](CC(=O)O)C(=O)N[C@@H](CC(C)C)C(=O)N[C@@H](CCC(N)=O)C(=O)N[C@H](C(=O)N[C@@H](CC(C)C)C(=O)N[C@@H](C)C(=O)N[C@@H](CCC(N)=O)C(=O)N[C@@H](CCCCN)C(=O)N[C@H](C(=O)N[C@@H](C)C(=O)N[C@@H](CCCNC(=N)N)C(=O)N[C@H](C(=O)O)[C@@H](C)O)C(C)C)C(C)C)C(C)C`, the Drug uptake entry in data set [1] is “Not Active”. Besides, the fold change (FC) is 1.48 at Integrin alpha-V/beta-6 [5] and 1.05 on Integrin alpha-V/beta-6 [6].

As for `CC(C)C[C@H](NC(=O)[C@H](CC(=O)O)NC(=O)CNC(=O)[C@H](CCCNC(=N)N)NC(=O)[C@H](CC(C)C)NC(=O)[C@H](CC(N)=O)NC(=O)[C@@H]1CCCN1C(=O)[C@@H](NC(=O)[C@H](CCCCNC(=O)CCCC[C@@H]1SC[C@@H]2NC(=O)N[C@@H]21)NC(=O)[C@@H](N)CC(N)=O)C(C)C)C(=O)N[C@@H](CCC(N)=O)C(=O)N[C@H](C(=O)N[C@@H](CC(C)C)C(=O)N[C@@H](C)C(=O)N[C@@H](CCC(N)=O)C(=O)N(C)[C@@H](CCCCN)C(=O)N[C@H](C(=O)N[C@@H](C)C(=O)N[C@@H](CCCNC(=N)N)C(=O)N[C@H](C(=O)O)[C@@H](C)O)C(C)C)C(C)C`, the Drug uptake result in data set [1] was “Not Active”. Further, the fold change (FC) on Integrin alpha-V/beta-6 [5] was found to be 0.37; at Integrin alpha-V/beta-6 [6], 0.89.
